Counter-ions that a name gives are not always drawn. Like-named read-outs stand apart in the source and are kept apart here.

For assay [1], the system named is NCI-H292 lung cancer cells. Kind of assay: FDA drug screening, complete media vs cholesterol-free media with simvastatin (TABLE 2). Format: cell-based, human.
The test system of assay [2] is NCI-H292 lung cancer cells. Briefly: FDA drug screening, complete media vs cholesterol-free media without statin (TABLE 1). Format: cell-based, human.
Where [3] appears, read: NCI-H292 cells, cholesterol-free media with simvastatin 0.04 μM, FDA drug library screen (TABLE 2).
[4] abbreviates: NCI-H292 cells, complete media, FDA drug library screen (TABLE 2).
[5] abbreviates: complete media minus cholesterol-free media + simvastatin (0.04 μM), >0 enhanced anti-cancer activity, about 0 neutral, <0 antagonist.
[6] abbreviates: NCI-H292 cells, cholesterol-free media without statin.
[7] abbreviates: complete vs cholesterol-free media, greater than 0 enhanced anti-cancer activity, about 0 neutral, below 0 antagonists.
Where [8] appears, read: complete media minus cholesterol-free media + simvastatin, >0 enhanced anti-cancer activity, about 0 neutral, <0 antagonist.
The mark [9] stands for this setting: Complete minus Cholesterol-free, >0 enhanced anti-cancer activity, about 0 neutral, <0 antagonist.
Where [10] appears, read: NCI-H292 cells, drug in cholesterol-free media with simvastatin 0.04 μM.
[11] abbreviates: NCI-H292 cells, drug in complete media.
[12] abbreviates: complete media vs cholesterol-free media + simvastatin (0.04 μM), >0 enhanced anti-cancer activity, about 0 neutral, <0 antagonist.
Where [13] appears, read: NCI-H292 cells, FDA drug library screen, cholesterol-free media with simvastatin 0.04 μM.
The mark [14] stands for this setting: NCI-H292 cells, FDA drug library screen, complete media.
Setting [15] is: NCI-H292 cells, cholesterol-free media without statin, FDA drug library screen.
Where [16] appears, read: NCI-H292 cells, complete media, FDA drug library screen.
Where [17] appears, read: NCI-H292 cells, FDA library drug in cholesterol-free media with simvastatin 0.04 μM.
The mark [18] stands for this setting: NCI-H292 cells, FDA library drug in complete media.
Where [19] appears, read: Complete minus Cholesterol-free, greater than 0 enhanced anti-cancer activity, about 0 neutral, below 0 antagonists.
The mark [20] stands for this setting: NCI-H292 cells in cholesterol-free media without statin.
The mark [21] stands for this setting: NCI-H292 cells in complete media.
Where [22] appears, read: NCI-H292 cells, FDA drug library screen, cholesterol-free media without statin.
The mark [23] stands for this setting: Complete minus Cholesterol-free, greater than 0 enhanced anti-cancer activity, about 0 neutral, below 0 antagonist.
Setting [24] is: complete vs cholesterol-free media, >0 enhanced anti-cancer activity, about 0 neutral, <0 antagonist.

Consider `C=CC(=O)N1CCC[C@@H](n2nc(-c3ccc(Oc4ccccc4)cc3)c3c(N)ncnc32)C1` (racemic) [Ibrutinib (Racemate)], for which the “Cholesterol-free media + simvastatin (0.04 μM)” value in assay [1] (setting [3]) was 0.346. For the same compound, the “Complete Media” value in assay [1] (setting [4]) is 0.2858. The Difference in assay [1] (setting [5]) is recorded as −0.06; in assay [2] (setting [7]), −0.32. In assay [2] (setting [6]), the Cholesterol-free came out at 1.242. For the same compound, the Complete in assay [2] (NCI-H292 cells, complete media) is listed as 0.9233.

With `CC(C(=O)O)c1ccc(C(=O)c2cccs2)cc1` (stereo not drawn) [Suprofen], in assay [1] (NCI-H292 cells, cholesterol-free media with simvastatin 0.04 μM, cell growth value in FDA drug screen), the “Cholesterol-free media + simvastatin (0.04 μM)” value came to 0.9436. Besides, the “Complete Media” value in assay [1] (NCI-H292 cells, complete media, cell growth value in FDA drug screen) is reported as 0.9637. For the same compound, the figures for the Difference in assay [1] (setting [8]) and in assay [2] (setting [9]) were 0.02 and −0.28, respectively. In addition, the Cholesterol-free in assay [2] (setting [6]) was 1.108. For the same compound, the Complete in assay [2] (NCI-H292 cells, complete media) turned out to be 0.8283.

For the compound `Cc1cc(NS(=O)(=O)c2ccc(N)cc2)no1` [Sulfamethoxazole], the “Cholesterol-free media + simvastatin (0.04 μM)” value in assay [1] (setting [10]) is listed as 1.223. For the same compound, in assay [1] (setting [11]), the “Complete Media” value is 1.051. Also, the values for the Difference in assay [1] (setting [12]) and in assay [2] (setting [7]) were −0.17 and −0.44, respectively. In assay [2] (setting [6]), this compound returned a Cholesterol-free of 1.301. Further, the Complete in assay [2] (NCI-H292 cells, complete media) was 0.8647.

As for `Nc1c2c(nc3ccccc13)CCCC2` [Tacrine (hydrochloride)], in assay [1] (setting [13]), the “Cholesterol-free media + simvastatin (0.04 μM)” value was determined as 1.139. Further, in assay [1] (setting [14]), the “Complete Media” value turned out to be 1.054. The Difference in assay [1] (setting [12]) was −0.08; in assay [2] (setting [7]), −0.46. The Cholesterol-free in assay [2] (setting [6]) amounted to 1.218. The Complete in assay [2] (NCI-H292 cells, complete media) is listed as 0.7601.

Consider Ruxolitinib (phosphate), for which, in assay [1] (setting [10]), the “Cholesterol-free media + simvastatin (0.04 μM)” value is 0.8715. The “Complete Media” value in assay [1] (setting [11]) was determined as 0.6795. Besides, the Difference was −0.19 in assay [1] (setting [12]) and −0.04 in assay [2] (setting [9]). In assay [2] (setting [15]), the Cholesterol-free is recorded as 0.6764. This compound had a Complete in assay [2] (setting [16]) of 0.6315.

As to `Cc1nnc(C(=O)NC(C)(C)c2nc(C(=O)NCc3ccc(F)cc3)c(O)c(=O)n2C)o1` [Raltegravir], in assay [1], the “Cholesterol-free media + simvastatin (0.04 μM)” value is on record as 1.209, the “Complete Media” value was found to be 1.119 and the Difference is on record as −0.09. In assay [2], this compound gave a Cholesterol-free of 1.135, a Complete of 0.9505 and a Difference of −0.18.

Consider `CCC1(c2ccccc2)NC(=O)N(C)C1=O` (stereo not drawn) [Mephenytoin], for which the “Cholesterol-free media + simvastatin (0.04 μM)” value in assay [1] (setting [17]) is 1.274. Further, the “Complete Media” value in assay [1] (setting [18]) is 1.003. Further, the values for the Difference in assay [1] (setting [12]) and in assay [2] (setting [19]) were −0.27 and −0.62, respectively. The Cholesterol-free in assay [2] (setting [20]) was 1.604. The Complete in assay [2] (setting [21]) was determined as 0.9878.

`C[C@@H]1[C@@H](c2ccc(Cl)cc2)SC(=O)N1C(=O)NC1CCCCC1` [Hexythiazox]: in assay [1] (NCI-H292 cells, cholesterol-free media with simvastatin 0.04 μM, […]), the “Cholesterol-free media + simvastatin (0.04 μM)” value was 0.8643. The “Complete Media” value in assay [1] (NCI-H292 cells, complete media, […]) is listed as 0.9913. Also, the Difference in assay [1] (complete media minus cholesterol-free media + simvastatin, […]) is listed as 0.13; in assay [2] (Complete minus Cholesterol-free, […]), −0.16. Also, the Cholesterol-free in assay [2] (setting [22]) is 1.557. The compound also yielded a Complete in assay [2] (setting [14]) of 1.396.

`CCOC(=O)c1ccc(C#Cc2ccc3c(c2)C(C)(C)CCS3)nc1` [Tazarotene]: in assay [1] (setting [3]), the “Cholesterol-free media + simvastatin (0.04 μM)” value was 0.9107. The “Complete Media” value in assay [1] (setting [4]) amounted to 0.8646. Moreover, the Difference is reported as −0.05 in assay [1] (setting [5]) and −0.11 in assay [2] (setting [23]). The compound further showed a Cholesterol-free in assay [2] (setting [22]) of 0.7313. The same compound gave a Complete in assay [2] (setting [14]) of 0.6177.

Turning to Sertaconazole (nitrate), in assay [1] (setting [13]), the “Cholesterol-free media + simvastatin (0.04 μM)” value is recorded as 0.3702. Also, the “Complete Media” value in assay [1] (setting [14]) is on record as 0.8436. Also, the Difference in assay [1] (setting [8]) was 0.47; in assay [2] (setting [24]), 0.17. For the same compound, in assay [2] (setting [15]), the Cholesterol-free was 0.6893. In assay [2] (setting [16]), this compound displayed a Complete of 0.8595.

`CC(C)(C)CC(C)(C)c1ccc(OCCOCC[N+](C)(C)Cc2ccccc2)cc1` [Benzethonium chloride]: in assay [1], the “Cholesterol-free media + simvastatin (0.04 μM)” value is reported as 0.6785, the “Complete Media” value was 0.4348 and the Difference is −0.24. Besides, in assay [2], the Cholesterol-free came out at 0.07505, the Complete came to 0.2197 and the Difference was 0.14.

For `CCN(CC)Cc1cc(Nc2ccnc3cc(Cl)ccc23)ccc1O` [Amodiaquine (dihydrochloride)], in assay [1] (setting [17]), the “Cholesterol-free media + simvastatin (0.04 μM)” value is listed as 1.766. In addition, the “Complete Media” value in assay [1] (setting [18]) is 1.059. In addition, the Difference is given as −0.71 in assay [1] (setting [12]) and −0.44 in assay [2] (setting [7]). The same compound came in with a Cholesterol-free in assay [2] (setting [6]) of 1.475. Also, the Complete in assay [2] (NCI-H292 cells, complete media) was found to be 1.037.

In the case of `COS(=O)(=O)[O-].C[N+]1(C)CCC(=C(c2ccccc2)c2ccccc2)CC1` [Diphenmanil (methylsulfate)], in assay [1] (setting [17]), the “Cholesterol-free media + simvastatin (0.04 μM)” value is 2.109. Besides, the “Complete Media” value in assay [1] (setting [18]) came out at 1.508. For the same compound, the Difference in assay [1] (complete media vs cholesterol-free media + simvastatin (0.04 μM), […]) is −0.60; in assay [2] (complete vs cholesterol-free media, […]), 0.11. In assay [2] (setting [15]), this compound showed a Cholesterol-free of 0.8176. In assay [2] (setting [16]), this compound showed a Complete of 0.9244.

`Cc1ccc(C(=O)c2cc(O)c(O)c([N+](=O)[O-])c2)cc1` [Tolcapone]: the “Cholesterol-free media + simvastatin (0.04 μM)” value in assay [1] (setting [10]) came to 1.114. Moreover, the “Complete Media” value in assay [1] (setting [11]) came to 0.8994. Further, the Difference in assay [1] (setting [12]) is on record as −0.21; in assay [2] (setting [23]), −0.19. Also, the Cholesterol-free in assay [2] (setting [22]) is on record as 1.149. The Complete in assay [2] (setting [14]) was 0.9627.

As for `C=C1CCN([C@H](C)[C@](O)(Cn2cncn2)c2ccc(F)cc2F)CC1` [Efinaconazole], the “Cholesterol-free media + simvastatin (0.04 μM)” value in assay [1] (setting [13]) was 0.5953. Also, the “Complete Media” value in assay [1] (setting [14]) is on record as 1.082. The Difference is 0.49 in assay [1] (setting [8]) and −0.45 in assay [2] (setting [7]). Besides, the Cholesterol-free in assay [2] (setting [6]) is given as 1.307. In assay [2] (NCI-H292 cells, complete media), the Complete is reported as 0.8534.

Consider Pheniramine (Maleate), for which the “Cholesterol-free media + simvastatin (0.04 μM)” value in assay [1] (setting [3]) is reported as 1.33. Further, the “Complete Media” value in assay [1] (setting [4]) was 1.284. The Difference in assay [1] (setting [5]) is given as −0.05; in assay [2] (setting [19]) it was −0.65. In assay [2] (setting [20]), this compound returned a Cholesterol-free of 1.526. In addition, the Complete in assay [2] (setting [21]) amounted to 0.8791.

For the compound `CC(=O)OCC(=O)[C@@]12OC(C)(C)O[C@@H]1C[C@H]1[C@@H]3C[C@H](F)C4=CC(=O)C=C[C@]4(C)[C@@]3(F)[C@@H](O)C[C@@]12C` [Fluocinonide], the “Cholesterol-free media + simvastatin (0.04 μM)” value in assay [1] (setting [13]) is reported as 0.6998. Also, the “Complete Media” value in assay [1] (setting [14]) was found to be 0.898. Further, the Difference is 0.20 in assay [1] (setting [8]) and −0.04 in assay [2] (setting [9]). Also, in assay [2] (setting [15]), the Cholesterol-free stood at 0.5848. This compound also yielded a Complete in assay [2] (setting [16]) of 0.544.

`COc1ccc2cc1Oc1ccc(cc1)C[C@H]1c3cc(c(OC)cc3CCN1C)Oc1c(OC)c(OC)cc3c1[C@H](C2)N(C)CC3` [Tetrandrine]: in assay [1] (setting [10]), the “Cholesterol-free media + simvastatin (0.04 μM)” value is given as 1.133. Further, in assay [1] (setting [11]), the “Complete Media” value is 0.9661. Also, the Difference in assay [1] (setting [12]) was −0.17; in assay [2] (setting [24]), 0.19. This compound also displayed a Cholesterol-free in assay [2] (setting [15]) of 0.9522. In assay [2] (setting [16]), this compound registered a Complete of 1.143.

Consider `CC1(C)S[C@@H]2[C@H](NC(=O)C(c3ccccc3)S(=O)(=O)O)C(=O)N2[C@H]1C(=O)O` (stereo partly drawn) [Sulbenicillin (disodium)], for which, in assay [1] (setting [10]), the “Cholesterol-free media + simvastatin (0.04 μM)” value came out at 1.164. In addition, the “Complete Media” value in assay [1] (setting [11]) is recorded as 0.9986. Besides, the Difference in assay [1] (setting [12]) was −0.17; in assay [2] (setting [24]), 0.42. In addition, the Cholesterol-free in assay [2] (setting [15]) is listed as 0.8061. Also, the Complete in assay [2] (setting [16]) came out at 1.226.

The record behind these values is US20250144067A1, “PERSONALIZED STARVATION THERAPY FOR CANCER” (Faeth Therapeutics, Inc., priority 2021, published 2025).
